Measurements as given in publication PMC9898036, “VIP152 is a selective CDK9 inhibitor with pre-clinical in vitro and in vivo efficacy in chronic lymphocytic leukemia” (Leukemia, 2022).

Tests used:
Assay type in all cases: binding
[1] = biological target: BLK (Homo sapiens, UniProt P51451); assay: KINOMEscan: BLK; conditions: 1000 nM, read-out: Percent Control
[2] = biological target: RSK2(Kin.Dom.2-C-terminal) (Homo sapiens, UniProt P51812); assay: KINOMEscan: RSK2(Kin.Dom.2-C-terminal); conditions: 100 nM, read-out: Percent Control
RSK2(Kin.Dom.2-C-terminal), sequence (P51812 398-740 limits assumed): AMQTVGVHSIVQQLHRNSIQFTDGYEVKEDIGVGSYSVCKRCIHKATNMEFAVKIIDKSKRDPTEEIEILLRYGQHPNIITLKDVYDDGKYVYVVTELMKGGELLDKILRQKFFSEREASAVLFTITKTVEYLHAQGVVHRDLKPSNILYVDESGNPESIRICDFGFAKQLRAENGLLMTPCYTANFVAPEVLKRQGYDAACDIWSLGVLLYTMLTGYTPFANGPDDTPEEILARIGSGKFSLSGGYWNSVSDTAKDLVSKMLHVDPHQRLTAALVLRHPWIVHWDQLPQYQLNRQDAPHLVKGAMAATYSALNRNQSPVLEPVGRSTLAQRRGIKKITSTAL

[3] = biological target: LOK (Homo sapiens, UniProt O94804); assay: KINOMEscan: LOK; conditions: 1000 nM, read-out: Percent Control
LOK, sequence (O94804 whole entry): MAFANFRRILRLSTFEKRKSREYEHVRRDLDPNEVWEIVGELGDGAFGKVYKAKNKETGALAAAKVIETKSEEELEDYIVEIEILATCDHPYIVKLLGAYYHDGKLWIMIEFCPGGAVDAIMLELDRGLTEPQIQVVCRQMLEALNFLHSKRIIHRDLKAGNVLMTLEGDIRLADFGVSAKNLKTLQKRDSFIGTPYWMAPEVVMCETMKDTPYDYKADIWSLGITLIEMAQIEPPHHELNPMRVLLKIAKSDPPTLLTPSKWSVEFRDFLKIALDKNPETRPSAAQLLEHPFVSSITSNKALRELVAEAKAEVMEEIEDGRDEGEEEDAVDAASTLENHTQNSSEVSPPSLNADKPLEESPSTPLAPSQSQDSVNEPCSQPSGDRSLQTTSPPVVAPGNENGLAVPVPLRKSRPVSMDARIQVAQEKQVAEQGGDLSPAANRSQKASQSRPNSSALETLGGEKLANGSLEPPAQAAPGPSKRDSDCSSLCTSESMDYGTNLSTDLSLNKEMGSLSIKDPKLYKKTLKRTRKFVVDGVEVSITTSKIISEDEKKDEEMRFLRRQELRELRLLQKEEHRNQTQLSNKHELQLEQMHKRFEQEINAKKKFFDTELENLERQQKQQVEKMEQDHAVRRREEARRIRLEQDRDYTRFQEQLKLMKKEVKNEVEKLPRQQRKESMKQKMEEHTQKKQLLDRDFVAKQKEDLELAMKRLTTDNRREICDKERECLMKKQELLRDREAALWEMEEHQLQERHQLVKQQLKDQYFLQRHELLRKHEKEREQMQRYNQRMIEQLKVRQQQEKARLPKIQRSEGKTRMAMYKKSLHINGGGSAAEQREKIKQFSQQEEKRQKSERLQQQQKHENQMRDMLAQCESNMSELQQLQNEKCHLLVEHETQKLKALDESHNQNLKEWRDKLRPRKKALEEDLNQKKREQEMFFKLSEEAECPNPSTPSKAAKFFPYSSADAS

[4] = biological target: RIOK3 (Homo sapiens, UniProt O14730); assay: KINOMEscan: RIOK3; conditions: 100 nM, read-out: Percent Control
RIOK3, sequence (O14730 whole entry): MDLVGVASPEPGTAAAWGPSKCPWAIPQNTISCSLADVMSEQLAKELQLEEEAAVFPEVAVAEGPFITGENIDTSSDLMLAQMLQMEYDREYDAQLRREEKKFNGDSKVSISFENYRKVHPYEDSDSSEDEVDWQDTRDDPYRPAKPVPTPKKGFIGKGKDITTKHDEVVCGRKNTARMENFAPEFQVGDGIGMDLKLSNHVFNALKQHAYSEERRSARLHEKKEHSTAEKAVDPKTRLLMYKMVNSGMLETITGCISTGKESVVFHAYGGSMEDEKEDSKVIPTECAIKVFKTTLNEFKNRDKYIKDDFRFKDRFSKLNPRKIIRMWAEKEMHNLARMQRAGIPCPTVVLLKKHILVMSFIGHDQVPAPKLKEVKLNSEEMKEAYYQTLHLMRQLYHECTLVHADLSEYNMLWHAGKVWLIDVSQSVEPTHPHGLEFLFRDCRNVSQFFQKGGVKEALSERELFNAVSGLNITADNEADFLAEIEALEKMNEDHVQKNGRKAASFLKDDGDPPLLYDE

[5] = biological target: SBK1 (Homo sapiens, UniProt Q52WX2); assay: KINOMEscan: SBK1; conditions: 100 nM, read-out: Percent Control
SBK1, sequence (Q52WX2 whole entry): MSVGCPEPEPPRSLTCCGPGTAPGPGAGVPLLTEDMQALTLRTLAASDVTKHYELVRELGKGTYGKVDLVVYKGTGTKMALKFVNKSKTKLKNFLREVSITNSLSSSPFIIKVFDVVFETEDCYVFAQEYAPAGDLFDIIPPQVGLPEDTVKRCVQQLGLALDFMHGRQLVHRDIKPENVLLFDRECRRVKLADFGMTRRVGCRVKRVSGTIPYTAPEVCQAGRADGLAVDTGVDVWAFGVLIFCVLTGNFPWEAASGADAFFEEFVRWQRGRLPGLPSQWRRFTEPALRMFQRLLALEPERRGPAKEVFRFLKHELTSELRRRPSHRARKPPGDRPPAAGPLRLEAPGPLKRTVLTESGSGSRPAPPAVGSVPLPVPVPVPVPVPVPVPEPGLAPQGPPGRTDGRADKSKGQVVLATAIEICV

[6] = biological target: RSK4(Kin.Dom.2-C-terminal) (Homo sapiens, UniProt Q9UK32); assay: KINOMEscan: RSK4(Kin.Dom.2-C-terminal); conditions: 100 nM, read-out: Percent Control
RSK4(Kin.Dom.2-C-terminal), sequence (Q9UK32 401-745 limits assumed): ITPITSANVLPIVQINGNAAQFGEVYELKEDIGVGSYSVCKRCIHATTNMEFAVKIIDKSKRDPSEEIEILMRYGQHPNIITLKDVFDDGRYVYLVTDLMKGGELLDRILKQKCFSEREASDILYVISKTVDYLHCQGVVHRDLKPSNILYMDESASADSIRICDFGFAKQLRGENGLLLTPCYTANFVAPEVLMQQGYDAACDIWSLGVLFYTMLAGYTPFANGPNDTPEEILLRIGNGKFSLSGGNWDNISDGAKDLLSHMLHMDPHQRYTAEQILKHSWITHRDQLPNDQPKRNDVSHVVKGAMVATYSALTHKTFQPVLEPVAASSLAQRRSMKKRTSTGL

BLK, sequence (P51451 whole entry): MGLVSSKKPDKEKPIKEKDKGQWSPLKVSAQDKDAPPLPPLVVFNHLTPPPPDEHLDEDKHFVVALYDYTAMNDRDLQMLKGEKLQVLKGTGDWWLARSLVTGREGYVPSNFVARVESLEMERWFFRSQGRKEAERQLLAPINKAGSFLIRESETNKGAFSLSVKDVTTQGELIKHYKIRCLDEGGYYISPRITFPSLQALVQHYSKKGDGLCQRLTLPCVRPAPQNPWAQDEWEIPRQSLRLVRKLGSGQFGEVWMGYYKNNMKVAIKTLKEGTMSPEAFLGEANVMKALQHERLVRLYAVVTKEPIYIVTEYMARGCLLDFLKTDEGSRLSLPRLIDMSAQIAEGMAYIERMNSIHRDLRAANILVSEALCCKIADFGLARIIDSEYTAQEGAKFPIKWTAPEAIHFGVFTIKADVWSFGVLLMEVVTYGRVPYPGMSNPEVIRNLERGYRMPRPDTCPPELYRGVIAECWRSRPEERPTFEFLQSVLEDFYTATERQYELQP

COc1cc(F)ccc1-c1cc(Nc2cc(CS(C)(=N)=O)ccn2)ncc1F (stereo not drawn) [VIP152]
remaining binding at 1 µM [1]: 76% | remaining binding at 0.1 µM [2]: 100% | remaining binding at 1 µM [3]: 53% | remaining binding at 0.1 µM [4]: 100% | remaining binding at 0.1 µM [5]: 95% | remaining binding at 0.1 µM [6]: 100%
